Laboratory results reported in patent EP0755938B1, “Ligated polyoxometalates and method for their synthesis” (THE B.F. GOODRICH COMPANY, priority 1995, dated 1997).

How the values were obtained:
[1] = Solubility of the isolated product in organic solvents, as noted in the synthesis examples; assay type: physicochemical
[2] = Solubility test in hexane (Table 1); assay type: physicochemical
[3] = Catalytic activity test: gel time in polymerizing dicyclopentadiene under RIM conditions; conditions: 4°C temperature rise from the initial temperature of 40°C; A and B components mixed in adiabatic chamber; Component B 0.66 wt. percent polyoxometalate catalyst
Protocol: The ligated polyoxomolybdate produced in Examples 1-4 were tested for their activity in polymerizing dicyclopentadiene under conditions of a RIM procedure.
Reaction injection molding components were prepared with the following recipes: Component A contained 88.2 wt. percent dicyclopentadiene/7.17 wt. percent cyclopentadiene trimer/3.52 wt. percent butadiene elastomer/0.5 wt. percent diethylaluminumchloride/0.25 wt. percent 2,4-dimethyl-3-pentanol/0.09 wt. percent n-propyl alcohol/0.18 wt. percent silicon tetrachloride.
Component B contained 88.63 wt. percent dicyclopentadiene/7.19 wt. percent cyclopentadiene trimer 3.52 wt. percent butadiene elastomer/0.66 wt. percent polyoxometalate catalyst.
The A and B components were reactivity tested using two pistons and a static mixer. The A and B components were first drawn into their respective piston of the reactivity tester. The components were then heated to 40°C inside the pistons. Next, the contents of the A and B component pistons of the reactivity tester were emptied through a static mixer into a disposable adiabatic chamber.
The temperature increase during the polymerization in the adiabatic chamber was monitored. The gel time is defined as a 4°C temperature rise from the initial temperature of 40°C.

Row | Substance | soluble in cyclohexane [1] | soluble in dicyclopentadiene [1] | soluble in hexane [1] | also measured
1 | [(C8H17)3NCH3]4{(C6H5P)2Mo5O21} [Example 5] | soluble | soluble | – | Hexane soluble ([2]; numeric bound): < 5%
2 | [(C12H25)3NH4{(C6H5P)2Mo5O21} [Example 34] | soluble | – | soluble | –
3 | [(C12H25)3NH]2{(C6H4O2)2MoO2} [Example 32] | soluble | – | – | –
4 | [(C12H25)3NH]2{(H3NC6H4P)2Mo5O21} [Example 16] | soluble | – | soluble | Hexane soluble ([2]; result in words): soluble
5 | [(C12H25)3NH]2{[(OOC)CH2CH(O)(COO)]2Mo4O12} [Example 30] | soluble | – | soluble | –
6 | [(C12H25)3NH]2{[Br2C6H2(O)(COO)]2MoO2} [Example 29] | soluble | – | soluble | –
7 | [(C12H25)3NH]2{[C6H4(O)(COO)]2Mo2O5} [Example 24] | soluble | – | soluble | –
8 | [(C12H25)3NH]2{[C10H6(O)(COO)]2Mo2O5} [Example 27] | soluble | – | soluble | –
9 | [(C12H25)3NH]2{[CH3C6H3(O)(COO)]2Mo2O5} [Example 28] | soluble | – | soluble | –
10 | [(C12H25)3NH]2{[CH3CH(O)(COO)]2Mo2O5} [Example 23] | soluble | – | soluble | –
11 | [(C12H25)3NH]4{(C4H9P)2Mo5O21} [Example 17] | readily soluble | – | – | soluble in hot hexane [1]: readily soluble; Hexane soluble ([2]; result in words): soluble
12 | [(C12H25)3NH]4{(C6H5OP)2Mo5O21} [Example 12] | – | readily soluble | readily soluble | Hexane soluble ([2]; numeric bound): > 99%
13 | [(C12H25)3NH]4{(C6H5P)2Mo5O21} [Example 1] | – | – | – | gel time [3]: 4.4 min
14 | [(C12H25)3NH]4{(C6H5P)2Mo5O21} [Example 2] | – | readily soluble | readily soluble | gel time [3]: 3.7 min; Hexane soluble ([2]; numeric bound): > 99%
15 | [(C12H25)3NH]4{(C6H5P)2Mo5O21} [Example 10] | – | readily soluble | readily soluble | –
16 | [(C12H25)3NH]4{(C6H5P)2Mo5O21} [Example 19] | – | readily soluble | readily soluble | –
17 | [(C12H25)3NH]4{(C6H5P)2Mo5O21} [Example 33] | soluble | – | soluble | –
18 | [(C12H25)3NH]4{(C6H5P)2Mo5O21} [Example 35] | soluble | – | soluble | –
19 | [(C12H25)3NH]4{(C6H5P)2W5O21} [Example 9] | – | soluble | soluble | Hexane soluble ([2]; numeric bound): > 99%
20 | [(C12H25)3NH]4{(CH3)3CP)2Mo5O21} [Example 8] | – | – | – | soluble in cyclohexane/hexane mixture ([1]; cyclohexane/hexane mixture): soluble; Hexane soluble ([2]; result in words): soluble
21 | [(C12H25)3NH]4{(CH3P)2Mo5O21} [Example 15] | soluble | – | – | soluble in hot hexane [1]: soluble; Hexane soluble ([2]; result in words): soluble
22 | [(C12H25)3NH]4{(HOP)2Mo5O21} [Example 38] | soluble | – | soluble | –
23 | [(C12H25)3NH]4{(HP)2Mo5O21} [Example 20] | soluble | – | – | –
24 | [(C12H25)3NH]4{[(HOCH2)2CHOP)]2Mo5O21} [Example 13] | – | readily soluble | readily soluble | Hexane soluble ([2]; numeric bound): > 99%
25 | [(C12H25)3NH]4{[C6H4(O)(COO)]2Mo4O12} [Example 26] | soluble | – | soluble | –
26 | [(C12H25)3NH]4{[CH3CH(O)(COO)]2Mo4O12} [Example 22] | soluble | – | soluble | –
27 | [(C18H37)0.65C16H33)0.35(C14H29)0.05NH]4{(C6H5P)2Mo5O21} [Example 7] | soluble | soluble | soluble | Hexane soluble ([2]; numeric bound): > 99%
28 | [(i-C8H17)3NH]4{(C6H5P)2Mo5O21} [Example 4] | readily soluble | – | – | soluble in hot hexane [1]: readily soluble; gel time [3]: 2.5 min; Hexane soluble ([2]; numeric bound): < 5%
29 | [(i-C10H21)3NH]4{(C6H5P)2Mo3O21} [Example 3] | – | readily soluble | readily soluble | gel time [3]: 3.4 min; Hexane soluble ([2]; numeric bound): > 99%
30 | [C12H25NH]4{[HOC(O)CH2CH2P]2Mo5O21]} [Example 14] | – | – | – | Hexane soluble ([2]; result in words): soluble
